From patent US20200017496A1 (priority 2017, published 2020)
“And” between values parts separate entries of the source, which are not always exact repeats. Equal entries are not always repeated. Where two headings read alike, the source gives them in different places.

How the values were obtained:
Test in all cases: MIC of compounds alone and combined with antibacterials, broth microdilution (CLSI)
Format in all cases: cell-based
[1] = system: Citrobacter freundii (CFR) isolates
How it was run: (§1)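 Compound MIC, and antibacterial MIC at each fixed compound level, taken by visual inspection as lowest concentration stopping growth. Inoculum: log-phase bacteria, final 5·10^5 CFU/mL, cation-adjusted Mueller-Hinton broth; 16-20 h, 35° C, ambient air.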

[2] = system: Citrobacter koseri (CKR) isolates; conditions: for MIC ATB in combination: AF1 @ 4 μg/mL; for MIC: Citrobacter koseri
How it was run: as §1

[3] = system: Klebsiella oxytoca (KOX) isolates; conditions: for MIC ATB in combination: AF1 @ 4 μg/mL; for MIC: Klebsiella oxytoca
How it was run: as §1

[4] = system: Klebsiella pneumoniae (KPN) isolates; conditions: for MIC ATB in combination: AF1 @ 4 μg/mL
How it was run: as §1

[5] = system: Morganella morganii (MMO) isolates; conditions: for MIC: Morganella morganii
How it was run: as §1

[6] = system: Providencia stuartii (PST) isolates; conditions: for MIC ATB in combination: AF1 @ 4 μg/mL
How it was run: as §1

[7] = system: Serratia marcescens (SMA) isolates
How it was run: as §1

CC1(C)S[C@@H]2[C@H](NC(=O)[C@H](N)c3ccc(O)cc3)C(=O)N2[C@H]1C(=O)O [AMX, Amoxicillin]
MIC [1]: 128 µg/mL and >256 µg/mL
MIC ATB in combination [1]: 128 µg/mL
MIC ATB in combination ([1]; CFR UFR11, AF1 @ 4 μg/mL): >512 µg/mL
MIC ATB in combination ([1]; CFR UFR83, AF1 @ 4 μg/mL): >512 µg/mL
MIC ATB in combination ([1]; CFR UFR146, AF1 @ 4 μg/mL): 256 µg/mL
MIC ATB in combination ([1]; CFR UFR248, AF1 @ 4 μg/mL): 64 µg/mL
MIC ATB in combination ([1]; CFR UFR249, AF1 @ 4 μg/mL): 256 µg/mL
MIC ATB in combination ([1]; CFR UFR250, AF1 @ 4 μg/mL): 32 µg/mL
MIC ([1]; Citrobacter freundii): > 128 µg/mL
MIC ATB in combination ([1]; strain CFR UFR253, antibacterial combined with AF1 @ 4 μg/mL): 4 µg/mL
MIC ATB in combination ([1]; strain CFR UFR254, antibacterial combined with AF1 @ 4 μg/mL): 4 µg/mL
MIC ATB in combination ([2]; CKO ROU): 32 µg/mL
MIC ATB in combination ([2]; CKO UFR149): 512 µg/mL
MIC ATB in combination ([2]; CKO UFR150): 64 µg/mL
MIC ([2]; strain CKO ROU (TEM-1, SHV-12, CTX-M-15, OXA-1, OXA-48), ATB alone): > 256 µg/mL
MIC ([2]; strain CKO ROU (TEM-1, SHV-12, CTX-M-15, OXA-1, OXA-48), CLA @ 4 μg/ml+ ATB): > 128 µg/mL
MIC ([2]; strain CKO UFR149 (OXA-48), ATB alone): > 128 µg/mL
MIC ([2]; strain CKO UFR149 (OXA-48), CLA @ 4 μg/ml+ ATB): > 128 µg/mL
MIC ([2]; strain CKO UFR150 (TEM-1, OXA-48), ATB alone): > 128 µg/mL
MIC ([2]; strain CKO UFR150 (TEM-1, OXA-48), CLA @ 4 μg/ml+ ATB): > 128 µg/mL
MIC ATB in combination ([3]; KOX UFR21): 256 µg/mL
MIC ATB in combination ([3]; KOX UFR173): 4 µg/mL
MIC ATB in combination ([3]; KOX UFR223): 16 µg/mL
MIC ATB in combination ([3]; KOX UFR224): 64 µg/mL
MIC [3]: > 128 µg/mL
MIC ([3]; strain KOX UFR21 (TEM-1, CTX-M-15, OXA-48), ATB alone): > 256 µg/mL
MIC ([3]; strain KOX UFR21 (TEM-1, CTX-M-15, OXA-48), CLA @ 4 μg/ml+ ATB): > 128 µg/mL
MIC ([3]; strain KOX UFR223 (SHV-11, OXA-48), ATB alone): > 128 µg/mL
MIC ([3]; strain KOX UFR223 (SHV-11, OXA-48), CLA @ 4 μg/ml+ ATB): > 128 µg/mL
MIC ([3]; strain KOX UFR224 (CTX-M-15, OXA-48), ATB alone): > 128 µg/mL
MIC ([3]; strain KOX UFR224 (CTX-M-15, OXA-48), CLA @ 4 μg/ml+ ATB): > 128 µg/mL
MIC [4]: >128 µg/mL and 128 µg/mL
MIC ATB in combination ([4]; KPN 6299): 256 µg/mL
MIC ATB in combination ([4]; KPN 131119): 256 µg/mL
MIC ATB in combination ([4]; KPN 140513): >512 µg/mL
MIC ATB in combination ([4]; KPN 190270): 16 µg/mL
MIC ATB in combination ([4]; KPN 190551): 64 µg/mL
MIC ATB in combination ([4]; KPN 200047): 16 µg/mL
MIC ATB in combination ([4]; KPN 200327): 32 µg/mL
MIC ATB in combination ([4]; KPN 260252): 256 µg/mL
MIC ATB in combination ([4]; KPN 260376): 32 µg/mL
MIC ATB in combination ([4]; KPN 270077): 4 µg/mL
MIC ATB in combination ([4]; KPN 700603): 4 µg/mL
MIC ATB in combination ([4]; KPN ARA): 256 µg/mL
MIC ATB in combination ([4]; KPN BAA-1898): 256 µg/mL
MIC ATB in combination ([4]; KPN LIB): 16 µg/mL
MIC ATB in combination ([4]; KPN UFR22_O): 64 µg/mL
MIC ATB in combination ([4]; KPN UFR23): 32 µg/mL
MIC ATB in combination ([4]; KPN UFR24): 64 µg/mL
MIC ATB in combination ([4]; KPN UFR25): 512 µg/mL
MIC ATB in combination ([4]; KPN UFR65): 256 µg/mL
MIC ATB in combination ([4]; KPN UFR66): 256 µg/mL
MIC ATB in combination ([4]; KPN UFR67): 256 µg/mL
MIC ATB in combination ([4]; KPN UFR68): 256 µg/mL
MIC ATB in combination ([4]; KPN UFR76): >512 µg/mL
MIC ATB in combination ([4]; KPN UFR77): 64 µg/mL
MIC ATB in combination ([4]; KPN UFR78): >512 µg/mL
MIC ATB in combination ([4]; KPN UFR79): >512 µg/mL
MIC ATB in combination ([4]; KPN UFR81): >512 µg/mL
MIC ATB in combination ([4]; KPN UFR215): 64 µg/mL
MIC ATB in combination ([4]; KPN UFR216): 32 µg/mL
MIC ATB in combination ([4]; KPN UFR217): 64 µg/mL
MIC ATB in combination ([4]; KPN UFR220): 512 µg/mL
MIC ATB in combination ([4]; KPN UFR221): 256 µg/mL
MIC ATB in combination ([4]; KPN UFR222): >512 µg/mL
MIC ATB in combination ([4]; KPN UFR227O): 512 µg/mL
MIC ([4]; Klebsiella pneumoniae): > 256 µg/mL
MIC ([4]; Klebsiella pneumoniae, BAA1898, strain KPN BAA-1898 (TEM-1, SHV-11, SHV-12, KPC-2), ATB alone, read-out: MIC): > 1020 µg/mL
MIC ([4]; Klebsiella pneumoniae, BAA1898, strain KPN BAA-1898 (TEM-1, SHV-11, SHV-12, KPC-2), CLA @ 4 μg/ml+ ATB, read-out: MIC): > 512 µg/mL
MIC ([4]; Klebsiella pneumoniae, strain KPN 6299 (TEM-1, SHV-11, OXA-163), ATB alone, read-out: MIC): > 1020 µg/mL
MIC ([4]; Klebsiella pneumoniae, strain KPN 6299 (TEM-1, SHV-11, OXA-163), CLA @ 4 μg/ml+ ATB, read-out: MIC): > 512 µg/mL
MIC ([4]; Klebsiella pneumoniae, strain KPN 131119 (TEM-1, SHV-11, CTX-M-15, OXA-1, OXA-48), CLA @ 4 μg/ml+ ATB, read-out: MIC): > 512 µg/mL
MIC ([4]; Klebsiella pneumoniae, strain KPN 200047 (TEM-1, SHV-32, CTX-M-15, OXA-1), CLA @ 4 μg/ml+ ATB, read-out: MIC): 32 µg/mL
MIC ([4]; Klebsiella pneumoniae, strain KPN 200327 (TEM-1, SHV-1, CTX-M-15, OXA-1), CLA @ 4 μg/ml+ ATB, read-out: MIC): 32 µg/mL
MIC ([4]; Klebsiella pneumoniae, strain KPN 270077 (TEM-1, SHV-1, CTX-M-15), CLA @ 4 μg/ml+ ATB, read-out: MIC): 32 µg/mL
MIC ([4]; Klebsiella pneumoniae, strain KPN 700603 (SHV-18, OXA-2), CLA @ 4 μg/ml+ ATB, read-out: MIC): 8 µg/mL
MIC ([4]; Klebsiella pneumoniae, strain KPN LIB (SHV-11, OXA-48), CLA @ 4 μg/ml+ ATB, read-out: MIC): > 512 µg/mL
MIC ([4]; Klebsiella pneumoniae, strain KPN UFR68 (TEM-1, SHV-11, CTX-M-15, KPC-3), ATB alone, read-out: MIC): > 1020 µg/mL
MIC ATB in combination [5]: 128 µg/mL
MIC ATB in combination ([5]; MMO 200321, AF1 @ 4 μg/mL): 256 µg/mL
MIC ATB in combination ([5]; MMO UFR240, AF1 @ 4 μg/mL): 32 µg/mL
MIC ATB in combination ([5]; MMO UFR243, AF1 @ 4 μg/mL): 64 µg/mL
MIC ATB in combination ([5]; MMO UFR244, AF1 @ 4 μg/mL): 64 µg/mL
MIC ATB in combination ([5]; MMO UFR245, AF1 @ 4 μg/mL): 64 µg/mL
MIC ATB in combination ([5]; MMO UFR246, AF1 @ 4 μg/mL): 64 µg/mL
MIC ATB in combination ([5]; MMO UFR247, AF1 @ 4 μg/mL): 32 µg/mL
MIC [5]: > 128 µg/mL
MIC ([5]; strain MMO 200321 (TEM-1, CTX-M-15, OXA-1), ATB alone): > 256 µg/mL
MIC ([5]; strain MMO 200321 (TEM-1, CTX-M-15, OXA-1), CLA @ 4 μg/ml+ ATB): > 128 µg/mL
MIC ([5]; strain MMO UFR144 (TEM-1, CTX-M-15), ATB alone): > 128 µg/mL
MIC ([5]; strain MMO UFR144 (TEM-1, CTX-M-15), CLA @ 4 μg/ml+ ATB): > 128 µg/mL
MIC ([5]; strain MMO UFR240 (CTX-M-9), ATB alone): > 128 µg/mL
MIC ([5]; strain MMO UFR240 (CTX-M-9), CLA @ 4 μg/ml+ ATB): > 128 µg/mL
MIC ([5]; strain MMO UFR241 (TEM-1, CTX-M-15), ATB alone): > 128 µg/mL
MIC ([5]; strain MMO UFR241 (TEM-1, CTX-M-15), CLA @ 4 μg/ml+ ATB): > 128 µg/mL
MIC ([5]; strain MMO UFR242 (TEM-52), ATB alone): > 128 µg/mL
MIC ([5]; strain MMO UFR242 (TEM-52), CLA @ 4 μg/ml+ ATB): > 128 µg/mL
MIC [6]: 128 µg/mL
MIC ATB in combination ([6]; PST UFR94): 16 µg/mL
MIC ATB in combination ([6]; PST UFR95): 32 µg/mL
MIC ATB in combination ([6]; PST UFR235): 32 µg/mL
MIC ([6]; Providencia stuartii): > 128 µg/mL
MIC [7]: 128 µg/mL and >256 µg/mL
MIC ATB in combination [7]: 128 µg/mL
MIC ATB in combination ([7]; SMA UFR30, AF1 @ 4 μg/mL): 256 µg/mL
MIC ATB in combination ([7]; SMA UFR135, AF1 @ 4 μg/mL): 256 µg/mL
MIC ATB in combination ([7]; SMA UFR136, AF1 @ 4 μg/mL): 256 µg/mL
MIC ATB in combination ([7]; SMA UFR137, AF1 @ 4 μg/mL): 64 µg/mL
MIC ATB in combination ([7]; SMA UFR138, AF1 @ 4 μg/mL): 64 µg/mL
MIC ATB in combination ([7]; SMA UFR139, AF1 @ 4 μg/mL): 64 µg/mL
MIC ATB in combination ([7]; SMA UFR143, AF1 @ 4 μg/mL): 256 µg/mL
MIC ATB in combination ([7]; SMA UFR239, AF1 @ 4 μg/mL): 64 µg/mL
MIC ([7]; Serratia marcescens): > 128 µg/mL
MIC ([7]; Serratia marcescens, strain SMA UFR239 (ESAC), CLA @ 4 μg/ml+ ATB, read-out: MIC): 64 µg/mL
